Where no end group is shown, it is not given here.
How the values were obtained:
[1] = Peptide stability in rat serum by HPLC; assay type: in vitro ADME; conditions: 10 mg/mL in rat serum, 37 °C, 200 rpm, 24 h, HPLC peak area 220 nm, repeated three times; read-out: peptide remaining after 24 h of co-incubation with rat serum
Protocol: (§1) Antimicrobial peptides were dissolved in water or rat serum with a concentration of 10 mg/mL. The solution was incubated at 37 °C, 200 rpm for different time periods, and diluted 50 times for the HPLC analysis. In water, the incubation time was 0 h and 48 h. In rat serum, the incubation time was 0, 2, 4, 7, 12, 24 or 48 h. Each incubation condition was repeated three times. HPLC was conducted on a Waters HPLC system, which consisted of a 2996 photodiode array detector, a 2695 separation module and a temperature control column oven. Column: Sinochrom ODS-BP, 5 μm, 4.6 × 250 mm (Dalian Elite Analytical Instruments Co., Ltd., Dalian, China). Mobile phase: A: 100% ACN + 0.1% TFA; B: 100% Water + 0.1% TFA. Gradient elution: 0–20 min, 95% B–100% A; 20–25 min, 100% A. Detection wavelength: 220 nm. Flow rate: 1 mL/min. Sample volume: 50 μL (0.2 mg/mL).

[2] = tested on: Human embryonic kidney cells (293)
Protocol: Rat pulmonary artery smooth muscle cells (RPASMCs, primary cells separated by our laboratory) and human keratinocytes cells (HaCaT cells, Mingjing Biology, Shanghai, China) were cultured in high-glucose Dulbecco’s Modified Eagle Medium (DMEM), supplemented with 10% fetal bovine serum (FBS). Human umbilical vein endothelial cells (HUVECs, BeNa Culture Collection, Kunshan City, China) were cultured in the MCDB131 medium supplemented with 20% FBS and growth factor additives. Human embryonic kidney cells (293, Procell Life Science & Technology Co., Ltd., Wuhan, China) were cultured in minimum Eagle’s medium (MEM) supplemented with 10% FBS. All cells were cultured at 37 °C, with 5% CO2. All animals used in this study were supplied by the Medical Animal Test Center of Xi’an Jiaotong University and study protocols were approved by the Institutional Animal Care and Use Committee of the Ethics Committee of Health Science Center, Xi’an Jiaotong University (Ethical approval code: 2017-609).
Cells were inoculated in 96-well plates at 5 × 10^3 cells/well and cultured at 37 °C under 5% CO2. The supernatant was removed, and the cells were washed three times with PBS. Next, 100 μL of fresh culture medium containing different antimicrobial peptides was added (peptide concentration: 0, 1.0, 2.0, 5.0, 10, 25, 50 and 100 μM). Each concentration was repeated five times. Then, 10 μL of CCK-8 reagent was added 48 h later, followed by another two hours of incubation. The absorbance at 450 nm was measured using the same Multilabel Reader. Cellular growth viability was calculated using the following equation:Viability (%) = (mean absorbance value of treatment group − mean absorbance value of blank group group)/(mean absorbance value of control group − mean absorbance value of blank group) × 100. (2)

[3] = tested on: rat erythrocytes; conditions: rat RBC suspension in PBS, up to 100 μM, 37 °C, 1 h, OD 576 nm, 1% Triton X-100 = 100%, six replicates
Protocol: The hemolysis assay was carried out as reported in the literature [22]. Briefly, healthy male rats weighing ~300 g were anesthetized by isoflurane using a small animal anesthesia machine (R640, RWD Life Science, Shenzhen, China). Fresh rat blood samples were drawn from the ventral main vein and collected into an ethylene diamine tetraacetic acid (EDTA) treated anticoagulation tube. The collected blood samples were centrifuged at 4 °C, 350× g for five minutes. Red blood cells (RBCs) were pipetted and washed three times with cold PBS. […] These tubes were incubated at 37 °C, 1000 rpm in a BG200 dry bath incubator (Hangzhou LongGene Scientific Instruments Co., Ltd., Hangzhou, China) for 1 h. Then, the tubes were centrifuged at 350× g for 5 min. Next, 20 μL of the supernatants was mixed with 180 μL of PBS. Afterwards, 100 μL of the mixture was transferred into 96-well plates and hemoglobin release was monitored at 576 nm using a Multilabel Reader Varioskan Flash (Thermo Fisher). The RBC suspension in PBS was used as a negative control. The absorbance of the wells containing 1% Triton X-100 was taken as 100% hemolysis. The percentage of hemolysis was calculated using this formula:Hemolysis (%) = [(OD576 nm of the peptide solution − OD576 nm of the negative control)/(OD576 nm of the positive control − OD576 nm of the negative control)] × 100. (3) […]

[4] = tested on: Kunming mice; conditions: mouse, in vivo, iv
Protocol: Forty healthy male Kunming mice weighing ~25 g (5–6 weeks old) were injected intravenously with 100 μL of GK-19 with concentrations of 5 μmol/kg (n = 15) or 25 μmol/kg (n = 15). Mice blood samples (n = 5, per group and per time point) were collected from the mice’s eyeballs on days 1, 3 and 7 after injection for renal function test and liver function test. Meanwhile, major organs including lungs, heart, kidneys, liver and spleen were also harvested for hematoxylin and eosin staining on days 1, 3 and 7 after injection. To monitor the body weight changes in mice after injection of GK-19, five healthy male Kunming mice weighing ~25 g were injected intravenously with 100 μL of GK-19 with concentrations of 25 μmol/kg. Mice weights were recorded daily for seven days.
(§2) The hematoxylin and eosin staining in this study was carried out by Servicebio (Wuhan, China). Briefly, the obtained skin tissues were soaked in 4% paraformaldehyde solution (Beyotime, China) and fixed for more than 24 h. Then, they were dehydrated and embedded with paraffin, and tissue sections having thicknesses of 4 μm were prepared. After deparaffinization and rehydration, hematoxylin and eosin staining was performed.

[5] = Peptide stability in water by HPLC; assay type: physicochemical; conditions: 10 mg/mL in water, 37 °C, 200 rpm, 0 and 48 h, HPLC 220 nm, repeated three times
Protocol: as §1

[6] = tested on: MRSA; conditions: mouse, in vivo, 2 h, 50 μM
Protocol: (§3) The scalded mice models combined with SSTIs by MRSA or C. albicans were constructed. Fifty normal male Kunming mice (5–6 weeks old) weighing ~25 g were anesthetized by isoflurane using a small animal anesthesia machine (R640, RWD Life Science, China). After skin preparation and disinfection, a custom-made circular iron (diameter: 8 mm) (shown in Figure S4) was applied to both sides of the spine of the mice for 10 s at 300 °C, resulting in four scalded wounds. Mice were injected subcutaneously with 5 mg/kg meloxicam (Aladdin, Shanghai, China) for four days (once per day) after scalding for pain relief. Two days after scalding, the skin tissues of the scalded areas were removed carefully, and about 30 μL of 1 × 10^7 CFU/mL of MRSA or C. albicans was applied evenly onto the surfaces of the wounds. The mice were returned to the original feeding environment after the microbial fluid was completely absorbed (1.5–2 h), with two mice per cage. Corncob granules with SPF level were used as padding.
(§4) Two days after microbe inoculating, the scalded wounds of each mouse were divided into four groups randomly. […] The mice were returned to the original feeding environment after the solutions were completely absorbed. The treatment lasted for 12–16 days. Photographs of the wound areas were taken every two days using an iPhone 11 and the wound areas were measured every two days using Image J software (152-win-java8, Bethesda, MD, USA). The average wound areas on day two were used as the reference (100% unhealed) to normalized wound areas. Skin tissues of the wound areas were removed carefully at different time points (n = 5 for each time point) and weighted in a sterile environment. For MRSA infection, 10 mg of the wound tissues was dispersed into 1000 μL of sterile saline solution and the tissue solution was ground into suspension in a tissuelyser (Tissuelyser LT, Servicebio). Then, the tissue suspension was diluted with sterile saline solution 10 times and plated on MHA with a sample volume of 50 μL. For C. albicans infection, 10 mg of the wound tissues was dispersed into 200 μL of sterile saline solution and the tissue solution was also ground into suspension in the tissuelyser. The tissue suspension was then plated on PDA directly with a sample volume of 20 μL. After culturing overnight, the colonies were counted using Image J software or human eyes. In addition, the skin tissues of the wound area were removed carefully at different time points and dispersed into a 4% paraformaldehyde solution for further use.
as §2

[7] = tested on: C. albicans; conditions: mouse, in vivo, 2 h, 50 μM
Protocol: as §3, §4, §2

## GFLFKLIPKAIKKLISKFK [GK-19]
[1]
  remaining at 24 h, 10 mg/mL: > 50%
[2]
  cytotoxicity at the effective antimicrobial concentration, 293 cells: almost no apoptotic cells
[2]; 100 µM
  cell viability, 293 cells: less than 20%
[3]
  hemolytic activity: negligible hemolytic activity
[4]
  body weight change: gradual gain in body weight
  histology of major organs (heart, liver, spleen, lungs, kidneys): no observable tissue damage, necrosis, or inflammation
  liver and renal function tests: no difference from that in healthy mice
[5]
  time for which structural stability was retained in water: ≥ 48 h
[6]
  MRSA suppressed (inhibition rate) at day eight compared with saline solution groups: more than 95%
[7]
  C. albicans suppressed (inhibition rate) at day eight compared with saline solution groups: more than 97%

Reference: article PMC9503518, “Antibacterial and Antifungal Properties of a Novel Antimicrobial Peptide GK-19 and Its Application in Skin and Soft Tissue Infections Induced by MRSA or Candida albicans” (Pharmaceutics, 2022)
